# Reference: ChEMBL document CHEMBL1201862, “PubChem BioAssay data set” (2004)
#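 Grown in 96-well plates, cells were treated for 48 hours with each compound at five concentrations. Insufficient inhibition: endpoint recorded as highest concentration tested. At the GI50, growth is halved.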 Active and inactive are the calls of the source. Cut-off read from the data, not from the text of the source: active = GI50 up to about 1.1 µM and inactive = higher.
# Key:
# Experiment in all cases: inhibition of tumour cell growth, NCI panel, 48 h
# CAKI-1 = test system: CAKI-1
# SNB-19 = test system: SNB-19
# SR = test system: SR
# NCI/ADR-RES = test system: NCI/ADR-RES
# SF-539 = test system: SF-539
# RXF 393 = test system: RXF 393
# NCI-H522 = test system: NCI-H522
# SN12C = test system: SN12C
# UO-31 = test system: UO-31
# SK-MEL-5 = test system: SK-MEL-5
# HCT-116 = test system: HCT-116
# DU-145 = test system: DU-145
# MDA-MB-231 = test system: MDA-MB-231
# UACC-62 = test system: UACC-62
# IGROV-1 = test system: IGROV-1
# MCF7 = test system: MCF7
# RPMI-8226 = test system: RPMI-8226
# NCI-H460 = test system: NCI-H460
# OVCAR-8 = test system: OVCAR-8
# UACC-257 = test system: UACC-257
Structure (SMILES),GI50 (CAKI-1),GI50 (SNB-19),GI50 (SR),GI50 (NCI/ADR-RES),GI50 (SF-539),GI50 (RXF 393),GI50 (NCI-H522),GI50 (SN12C),GI50 (UO-31),GI50 (SK-MEL-5),GI50 (HCT-116),GI50 (DU-145),GI50 (MDA-MB-231),GI50 (UACC-62),GI50 (IGROV-1),GI50 (MCF7),GI50 (RPMI-8226),GI50 (NCI-H460),GI50 (OVCAR-8),GI50 (UACC-257)
CCCCNC1CCC2(SCCS2)c2[nH]c3ccccc3c21 (stereo not given),2.04 µM (inactive),29.6 µM (inactive),3.76 µM (inactive),21.6 µM (inactive),13.7 µM (inactive),21 µM (inactive),8.61 µM (inactive),37.7 µM (inactive),20.4 µM (inactive),5.14 µM (inactive),7.4 µM (inactive),19.1 µM (inactive),16.6 µM (inactive),20.2 µM (inactive),25.4 µM (inactive),3.11 µM (inactive),1.77 µM (inactive),33.3 µM (inactive),14.4 µM (inactive),4.09 µM (inactive)
C=CCNC(=S)N/C=C(\C(=O)OCC)C(=O)C(=O)OCC,> 100 µM (inactive),> 100 µM (inactive),> 100 µM (inactive),> 100 µM (inactive),> 100 µM (inactive),> 100 µM (inactive),> 100 µM (inactive),> 100 µM (inactive),> 100 µM (inactive),> 100 µM (inactive),> 100 µM (inactive),> 100 µM (inactive),> 100 µM (inactive),> 100 µM (inactive),> 100 µM (inactive),> 100 µM (inactive),> 100 µM (inactive),> 100 µM (inactive),> 100 µM (inactive),> 100 µM (inactive)
CCOC(=O)NC(Nc1ccc([N+](=O)[O-])cc1)(C(F)(F)F)C(F)(F)F,82.4 µM (inactive),> 100 µM (inactive),34.2 µM (inactive),30.8 µM (inactive),> 100 µM (inactive),12 µM (inactive),25.1 µM (inactive),> 100 µM (inactive),27 µM (inactive),81.3 µM (inactive),59.8 µM (inactive),> 100 µM (inactive),94.2 µM (inactive),95.1 µM (inactive),70.5 µM (inactive),60.7 µM (inactive),99.3 µM (inactive),40.9 µM (inactive),> 100 µM (inactive),70.3 µM (inactive)
Oc1cc(Br)cc2cc(Cl)cnc12,7.55 µM (inactive),3.11 µM (inactive),1.11 µM (active),1.21 µM (inactive),3.19 µM (inactive),1.95 µM (inactive),2.35 µM (inactive),3.13 µM (inactive),1.48 µM (inactive),1.71 µM (inactive),1.66 µM (inactive),4.56 µM (inactive),20.8 µM (inactive),2.08 µM (inactive),1.26 µM (inactive),3.33 µM (inactive),2.54 µM (inactive),1.09 µM (active),2.45 µM (inactive),3.27 µM (inactive)
CCSCCCCC(c1ccc(O)cc1)C(C)(CC)c1ccc(O)cc1 (stereo not given),35 µM (inactive),24.5 µM (inactive),38.7 µM (inactive),20.3 µM (inactive),20 µM (inactive),6.92 µM (inactive),17.7 µM (inactive),33.1 µM (inactive),19.6 µM (inactive),18.2 µM (inactive),17.9 µM (inactive),> 100 µM (inactive),21.7 µM (inactive),27.2 µM (inactive),16.9 µM (inactive),27.4 µM (inactive),19.5 µM (inactive),30.1 µM (inactive),19.3 µM (inactive),22.2 µM (inactive)
COc1cc2c(SCCN(C)C)nc3ccccc3c2c2ccccc12,1.88 µM (inactive),2.45 µM (inactive),1.7 µM (inactive),5.38 µM (inactive),1.74 µM (inactive),1.93 µM (inactive),1.68 µM (inactive),2.52 µM (inactive),2.26 µM (inactive),1.83 µM (inactive),1.67 µM (inactive),3.71 µM (inactive),2.25 µM (inactive),1.63 µM (inactive),1.3 µM (inactive),1.66 µM (inactive),1.76 µM (inactive),1.68 µM (inactive),2.14 µM (inactive),1.77 µM (inactive)
CCOC(=O)Nc1cc2c(c(N)n1)N=C(c1ccccc1)CN2,< 0.01 µM (active),< 0.01 µM (active),< 0.01 µM (active),< 0.0001 µM (active),< 0.01 µM (active),< 0.0001 µM (active),< 0.01 µM (active),< 0.01 µM (active),< 0.0194 µM (active),< 0.01 µM (active),< 0.01 µM (active),< 0.01 µM (active),< 0.01 µM (active),< 0.0001 µM (active),< 0.01 µM (active),0.0317 µM (active),< 0.01 µM (active),< 0.01 µM (active),< 0.01 µM (active),12.8 µM (inactive)
